Data reported in EP0086092A2, “Antifungal compositions” (priority 1982, dated 1983).

Columns and labels:
Candida albicans BC 759 = experiment: disc diffusion, zone of inhibition on seeded agar plates; type: cell-based; conditions: Table IV-a, 16-18 h, 28-37°C
Procedure: (§1) The antifungal activity of aculeacin A and the compositions of aculeacin A and fatty acids was measured by disc diffusion. Potentiation of antifungal activity was examined by three different methods employing: (1) a single concentration of aculeacin A and a single concentration of known fatty acids; '(2) various concentrations of aculeacin A with a single concentration of individual fatty acids; and (3) various concentrations of fatty acids with a single concentration of aculeacin A. The antifungal activities of aculeacin A and the fatty acids were separately checked as controls.
(§2) The antifungal effects of compositions containing a single amount of aculeacin A while varying the amounts. of oleic acid as the sodium salt were determined by utilizing seeded plates of Candida albicans strains B 311, BC 759 and B 3153A and measuring the zone of inhibition after 16-18 hours at 28-37°C. This test was also performed with linoleic acid and linolenic acid.
(§3) The seeded plates of Candida albicans strains B 311, BC 759, and B 3153A were prepared by inoculating 50 ml of trypticase soy broth (BBL) with one ml of the preserved frozen culture and incubating the inoculum at 37°C for 7 hours on a rotary shaker. Two milliliters of this culture were used to inoculate one liter of Sabouarud dextrose agar (Difco) at 50°C and 15 milliliters of the resultant medium poured into 150 mm petri-dishes.

Candida albicans B 3153A = experiment: as above; type: cell-based; conditions: Table IV-a, 16-18 h, 28-37°C
Procedure: as §1, §2, §3

C. albicans = experiment: topical treatment of C. albicans skin infections of mice; type: in vivo; conditions: female CF-1 mice, shaved back skin infected with clinical isolates; topical treatment for 5 days; aculeacin A at its MIC for each isolate; compared with aculeacin A itself, Lotrimin cream and control
Procedure: Clinical isolates of C. albicans were grown in Sabouarud dextrose agar and subcultured into mouse serum and incubated at 35 C. Female mice (CF-1, 4 to 6 weeks old) were shaved on the back (2cm ^2 area).
The shaved area was cleaned with 70%'alcohol and scrubbed with a wire brush. This area was then painted with the C. albicans in mouse serum as noted above (10^5-10^6 CFu/ml.) and after drying this area was covered with sterile gauze and the infection was allowed to develop over two days. After the development of the infection, the mice were treated with aculeacin A/oleic acid composition, aculeacin A and Lotrimin^R (Clotrimazole-Schering) for 5 days. The minimum inhibitory concentration (MIC) for aculeacin A for each clinical isolate of C. albicans was determined and that amount was employed in each experiment. Commercially available Lotrimin^R cream was utilized in each experiment. […] Note that bacterial contamination was ruled out by microscopic examination. • [formula] where 4 - the most severe infection - zone of inoculation highly erythrematous with culture mainly consisting of C. albicans. • 3 - severe infection with some healing • 2 - less severe infection • 1 - very little infection • 0 - no infection.

Candida albicans B 311 = experiment: disc diffusion, zone of inhibition on seeded agar plates; type: cell-based; conditions: 16-18 h; for Zone Size / Zone Size B 311: 28-37°C; for Zone Size Sabouarud Agar / Zone Size YNB agar: Table II, 37°C; for Zone Size YNB agar: lysine; for Zone Size B 311: Table IV-a
Procedure: The antifungal activity of aculeacin A and the compositions of aculeacin A and fatty acids was measured by disc diffusion.
The effects of a number of fatty acids on the antifungal activity of aculeacin A were determined by utilizing seeded plates of Candida albicans B 311 in yeast nitrogen base (YNB) agar (Difco) with glucose as the carbon source. A composition containing one unit by weight of aculeacin A and 5 units of fatty acid or the sodium salt thereof was spotted on the seeded plates and the size of the zone of inhibition after 16-18 hours incubation at 28-37 °C was measured.
Additional fatty acids were tested to determine , if they increased the intrinsic activity of aculeacin A against C. albicans B 311 utilizing seeded plates of YNB agar (Difco) with lysine as the carbon source and seeded plates of Sabouarud dextrose agar (Difco). Compositions containg one µg of aculeacin A and various amounts of the fatty acid was spotted on the seeded plates and the size of the zone of inhibition after 16-18 hours incubation at 37 °C was measured.
The antifungal effects of compositions containing a single amount of oleic acid as the sodium salt while varying the amounts of aculeacin A were determined by utilizing seeded plates of Candida albicans B 311 in Sabouarud dextrose agar and measuring the zone of inhibition after 16-18 hours incubation at 28-37°C.
as §2, §3

[1] = aculeacin A 0.40 µg + oleic acid (as sodium salt) 5 µg
[2] = aculeacin A 0.40 µg + oleic acid (as sodium salt) 10 µg
[3] = aculeacin A 0.40 µg + oleic acid (as sodium salt) 20 µg
[4] = aculeacin A 0.40 µg + oleic acid (as sodium salt) 40 µg
[5] = aculeacin A 0.40 µg + oleic acid (as sodium salt) 78 µg
[6] = aculeacin A 0.40 µg + oleic acid (as sodium salt) 156 µg
[7] = aculeacin A 0.40 µg + oleic acid (as sodium salt) 312 µg
[8] = aculeacin A 0.40 µg + oleic acid (as sodium salt) 625 µg
[9] = aculeacin A 0.40 µg + oleic acid (as sodium salt) 1250 µg

**Q.** With CCCCCCCC/C=C\CCCCCCCC(=O)O [Oleic Acid] as the compound, how does the “Zone Size BC 759” value (Candida albicans BC 759; [1]) read?
**A.** Its value is 13 mm.

**Q.** What about the “Zone Size BC 759” value (Candida albicans BC 759; [2]) of the same compound?
**A.** Its value is 15 mm.

**Q.** What about the “Zone Size BC 759” value (Candida albicans BC 759; [3]) of the same compound?
**A.** Its value is 18 mm.

**Q.** And the “Zone Size BC 759” value (Candida albicans BC 759; [4])?
**A.** Its value is 18 mm.

**Q.** And the “Zone Size BC 759” value (Candida albicans BC 759; [5])?
**A.** The value was 20 mm.

**Q.** And the “Zone Size BC 759” value (Candida albicans BC 759; [6])?
**A.** Its value is 24 mm.

**Q.** What about the “Zone Size BC 759” value (Candida albicans BC 759; [7]) of the same compound?
**A.** Its value is 28 mm.

**Q.** What about the “Zone Size BC 759” value (Candida albicans BC 759; [8]) of the same compound?
**A.** Its value is 29 mm.

**Q.** What about the “Zone Size BC 759” value (Candida albicans BC 759; [9]) of the same compound?
**A.** The value was 32 mm.

**Q.** And the “Zone Size B 3153-A” value (Candida albicans B 3153A; [1])?
**A.** Its value is 13 mm.

**Q.** And the “Zone Size B 3153-A” value (Candida albicans B 3153A; [2])?
**A.** The value was 15 mm.

**Q.** What about the “Zone Size B 3153-A” value (Candida albicans B 3153A; [3]) of the same compound?
**A.** Its value is 18 mm.

**Q.** What about the “Zone Size B 3153-A” value (Candida albicans B 3153A; [4]) of the same compound?
**A.** Its value is 17 mm.

**Q.** What about the “Zone Size B 3153-A” value (Candida albicans B 3153A; [5]) of the same compound?
**A.** Its value is 18 mm.

**Q.** And the “Zone Size B 3153-A” value (Candida albicans B 3153A; [6])?
**A.** Its value is 25 mm.

**Q.** What about the “Zone Size B 3153-A” value (Candida albicans B 3153A; [7]) of the same compound?
**A.** Its value is 25 mm.

**Q.** What about the “Zone Size B 3153-A” value (Candida albicans B 3153A; [8]) of the same compound?
**A.** Its value is 28 mm.

**Q.** What about the “Zone Size B 3153-A” value (Candida albicans B 3153A; [9]) of the same compound?
**A.** The value was 29 mm.

**Q.** And the “reduction in the infection” value (C. albicans)?
**A.** Its value is “did not inhibit the infection”.

**Q.** And the “Zone Size” value (Candida albicans B 311; Table I, YNB agar, glucose as carbon source, composition of 1 unit by weight aculeacin A + 5 units fatty acid)?
**A.** Its value is 32 mm.

**Q.** And the “Zone Size Sabouarud Agar” value (Candida albicans B 311; Sabouarud dextrose agar, aculeacin A 0 µg, fatty acid 250 µg alone)?
**A.** Its value is 0 mm.

**Q.** And the “Zone Size Sabouarud Agar” value (Candida albicans B 311; Sabouarud dextrose agar, aculeacin A 0 µg, fatty acid 500 µg alone)?
**A.** The value was 0 mm.

**Q.** And the “Zone Size Sabouarud Agar” value (Candida albicans B 311; Sabouarud dextrose agar, aculeacin A 0 µg, fatty acid 1000 µg alone)?
**A.** Its value is 0 mm.

**Q.** What about the “Zone Size Sabouarud Agar” value (Candida albicans B 311; Sabouarud dextrose agar, composition of aculeacin A 1 µg + fatty acid 250 µg) of the same compound?
**A.** The value was 28 mm.

**Q.** And the “Zone Size Sabouarud Agar” value (Candida albicans B 311; Sabouarud dextrose agar, composition of aculeacin A 1 µg + fatty acid 500 µg)?
**A.** The value was 26 mm.

**Q.** What about the “Zone Size Sabouarud Agar” value (Candida albicans B 311; Sabouarud dextrose agar, composition of aculeacin A 1 µg + fatty acid 1000 µg) of the same compound?
**A.** The value was 26 mm.

**Q.** What about the “Zone Size YNB agar” value (Candida albicans B 311; YNB agar, aculeacin A 0 µg, fatty acid 250 µg alone) of the same compound?
**A.** Its value is 0 mm.

**Q.** And the “Zone Size YNB agar” value (Candida albicans B 311; YNB agar, aculeacin A 0 µg, fatty acid 500 µg alone)?
**A.** The value was 0 mm.

**Q.** And the “Zone Size YNB agar” value (Candida albicans B 311; YNB agar, aculeacin A 0 µg, fatty acid 1000 µg alone)?
**A.** Its value is 0 mm.

**Q.** What about the “Zone Size YNB agar” value (Candida albicans B 311; YNB agar, composition of aculeacin A 1 µg + fatty acid 250 µg) of the same compound?
**A.** The value was 35 mm.

**Q.** And the “Zone Size YNB agar” value (Candida albicans B 311; YNB agar, composition of aculeacin A 1 µg + fatty acid 500 µg)?
**A.** Its value is 35 mm.

**Q.** What about the “Zone Size YNB agar” value (Candida albicans B 311; YNB agar, composition of aculeacin A 1 µg + fatty acid 1000 µg) of the same compound?
**A.** Its value is 35 mm.

**Q.** What about the “Zone Size” value (Candida albicans B 311; Table III, Sabouarud dextrose agar, aculeacin A 0.000 µg, oleic acid (as sodium salt) 12.5 µg alone) of the same compound?
**A.** The value was 0 mm.

**Q.** And the “Zone Size” value (Candida albicans B 311; Table III, Sabouarud dextrose agar, aculeacin A 0.020 µg + oleic acid (as sodium salt) 12.5 µg)?
**A.** The value was “trace”.

**Q.** What about the “Zone Size” value (Candida albicans B 311; Table III, Sabouarud dextrose agar, aculeacin A 0.039 µg + oleic acid (as sodium salt) 12.5 µg) of the same compound?
**A.** Its value is 28 mm.

**Q.** And the “Zone Size” value (Candida albicans B 311; Table III, Sabouarud dextrose agar, aculeacin A 0.078 µg + oleic acid (as sodium salt) 12.5 µg)?
**A.** The value was 29 mm.

**Q.** And the “Zone Size” value (Candida albicans B 311; Table III, Sabouarud dextrose agar, aculeacin A 0.156 µg + oleic acid (as sodium salt) 12.5 µg)?
**A.** Its value is 32 mm.

**Q.** And the “Zone Size” value (Candida albicans B 311; Table III, Sabouarud dextrose agar, aculeacin A 0.312 µg + oleic acid (as sodium salt) 12.5 µg)?
**A.** Its value is 35 mm.

**Q.** And the “Zone Size” value (Candida albicans B 311; Table III, Sabouarud dextrose agar, aculeacin A 0.625 µg + oleic acid (as sodium salt) 12.5 µg)?
**A.** The value was 35 mm.

**Q.** What about the “Zone Size” value (Candida albicans B 311; Table III, Sabouarud dextrose agar, aculeacin A 1.25 µg + oleic acid (as sodium salt) 12.5 µg) of the same compound?
**A.** The value was 37 mm.

**Q.** What about the “Zone Size B 311” value (Candida albicans B 311; [1]) of the same compound?
**A.** The value was 13 mm.

**Q.** And the “Zone Size B 311” value (Candida albicans B 311; [2])?
**A.** Its value is 14 mm.

**Q.** And the “Zone Size B 311” value (Candida albicans B 311; [3])?
**A.** Its value is 15 mm.

**Q.** And the “Zone Size B 311” value (Candida albicans B 311; [4])?
**A.** Its value is 17 mm.

**Q.** What about the “Zone Size B 311” value (Candida albicans B 311; [5]) of the same compound?
**A.** Its value is 20 mm.

**Q.** What about the “Zone Size B 311” value (Candida albicans B 311; [6]) of the same compound?
**A.** The value was 26 mm.

**Q.** And the “Zone Size B 311” value (Candida albicans B 311; [7])?
**A.** The value was 30 mm.

**Q.** What about the “Zone Size B 311” value (Candida albicans B 311; [8]) of the same compound?
**A.** The value was 32 mm.

**Q.** And the “Zone Size B 311” value (Candida albicans B 311; [9])?
**A.** Its value is 35 mm.
